In patent publication EP0283151A2, “Prostaglandins useful for lowering intraocular pressure” (ALLERGAN, INC, priority 1987, dated 1988):
Marks after values point to notes of the source that are not given here.

Experiments:
[1] = IOP effects in conscious rabbits, applanation pneumatonometry; assay type: in vivo, New Zealand-Dutch Belt cross rabbits; parameters: IOP (Test): unit not given here; settings: for IOP (Test): treated eye; for concentration having the same effect in lowering intraocular pressure: solution applied to the eye
Experimental: (§1) The ocular hypotensive activity of these compounds was measured by applanation pneumatonometry.
The effect of 0.1 percent PGF2α on IOP versus 0.01% solution of the 9,11,15 triacetyl ester of PGF2α was measured in New Zealand-Dutch Belt cross rabbits. Intraocular pressure was measured by applanation pneumatonometry in conscious animals. Nine animals were used for each experiment. The data from this study as summarized in Table I show about a 10-fold difference in the activity of 9,11,15-triacetyl PGF2α compound over PGF2α.

[2] = Duration of IOP-lowering action in cats after topical application; assay type: in vivo; parameters: unit not given here; settings: topical 0.1%, 25μL
Experimental: as §1
The duration of action of the triester (9,11,15-triacetyl ester) in comparison with that of the native PGF2α was tested in cats.

Row | SMILES | concentration having the same effect in lowering intraocular pressure [1] [%] | Test IOP ([2]; 0.0 hours) | Test IOP ([2]; 0.5 hours) | Test IOP ([2]; 1.0 hours) | Test IOP ([2]; 2.0 hours) | Test IOP ([2]; 3.0 hours) | Test IOP ([2]; 4.0 hours) | Test IOP ([2]; 6.0 hours) | Test IOP ([2]; 24.0 hours) | Test IOP ([2]; -0.5 hours) | further results
1 | CCCCC[C@H](O)/C=C/[C@@H]1[C@@H](C/C=C\CCCC(=O)O)[C@@H](O)C[C@H]1O [PGF2α, reference compound] | 0.1 | 19.8 | 18.2 | 15.4* | 14.5* | 15.3* | 16.7* | 21.5 | 19.8 | 19.7 | IOP (Test) ([1]; rabbits, 0.1% solution, 0 hours): 21.67; IOP (Test) ([1]; rabbits, 0.1% solution, 0.5 hours): 23.00; IOP (Test) ([1]; rabbits, 0.1% solution, 1.0 hours): 24.00; IOP (Test) ([1]; rabbits, 0.1% solution, 1.5 hours): 24.35; IOP (Test) ([1]; rabbits, 0.1% solution, 2.0 hours): 22.67; IOP (Test) ([1]; rabbits, 0.1% solution, 2.5 hours): 20.92; IOP (Test) ([1]; rabbits, 0.1% solution, 3.5 hours): 19.50*; IOP (Test) ([1]; rabbits, 0.1% solution, 4.5 hours): 20.75
2 | CCCCC[C@@H](/C=C/[C@H]1C(OC(C)=O)C[C@H](OC(C)=O)[C@@H]1C/C=C\CCCC(=O)O)OC(C)=O (stereo partly drawn) [Triester, (5Z,9α,13E,15S)-9,11,15-triacetoxyprosta-5,13-dienoic acid] | 0.01 | 20.6 | 18.6 | 17.9* | 17.0* | 18.0* | 17.8* | 18.8* | 20.0* | 21.2 | IOP (Test) ([1]; rabbits, 0.01% solution, 0 hours): 24.39; IOP (Test) ([1]; rabbits, 0.01% solution, 0.5 hours): 24.67; IOP (Test) ([1]; rabbits, 0.01% solution, 1.0 hours): 23.56; IOP (Test) ([1]; rabbits, 0.01% solution, 1.5 hours): 22.72*; IOP (Test) ([1]; rabbits, 0.01% solution, 2.0 hours): 21.33*; IOP (Test) ([1]; rabbits, 0.01% solution, 2.5 hours): 20.83*; IOP (Test) ([1]; rabbits, 0.01% solution, 3.5 hours): 22.22*; IOP (Test) ([1]; rabbits, 0.01% solution, 4.5 hours): 23.28; increase in potency in terms of lowering IOP compared to PGF2α ([1]; rabbits, 0.01% triacetyl ester versus 0.1% PGF2α): ~10 fold
